For orientation: solubility means the concentration that dissolves in the medium under given conditions. What is called AUC is the area under the concentration-time curve, a measure of exposure. For orientation: Cmax means the peak of the concentration-time curve. As a reminder, the Tmax is the time from dosing to the highest level.

The nature of data set [1]: Evaluation of release rate in buffer solution (pH 1.2), paddle 50 rpm. Format: physicochemical. The settings on record: for release rate: buffer pH 1.2, paddle 50 rpm. From the text:
The N-hydroxy-4-{5-[4-(5-isopropyl-2-methyl-1,3-thiazol-4-yl)phenoxy]pentoxy}benzamidine 2 ethansulfonic acid salt prepared in Example 1, the N-hydroxy-4-{5-[4-(5-isopropyl-2-methyl-1,3-thiazol-4-yl)phenoxy]pentoxy}benzamidine prepared in Comparative Example 1, and the N-hydroxy-4-{5-[4-(5-isopropyl-2-methyl-1,3-thiazol-4-yl)phenoxy]pentoxy}benzamidine 2 methansulfonic acid salt prepared in Comparative Example 2 were examined for release rate (%) in a buffer solution (pH 1.2) at a paddle rotation speed of 50 rpm.

A short description of data set [2]: Evaluation of solubility in solvents at room temperature. In kind it is physicochemical. From the text: The N-hydroxy-4-{5-[4-(5-isopropyl-2-methyl-1,3-thiazol-4-yl)phenoxy]pentoxy}benzamidine 2 ethansulfonic acid salt prepared in Example 1, the N-hydroxy-4-{5-[4-(5-isopropyl-2-methyl-1,3-thiazol-4-yl)phenoxy]pentoxy}benzamidine prepared in Comparative Example 1, and the N-hydroxy-4-{5-[4-(5-isopropyl-2-methyl-1,3-thiazol-4-yl)phenoxy]pentoxy}benzamidine 2 methansulfonic acid salt prepared in Comparative Example 2 were examined for solubility (μg/ml) in various solvents at room temperature.

Data set [3] is described as follows: Pharmacokinetic evaluation (bioavailability) in SD rats. In kind it is in vivo. Conditions: 50 mg/kg. On the procedure:
The N-hydroxy-4-{5-[4-(5-isopropyl-2-methyl-1,3-thiazol-4-yl)phenoxy]pentoxy}benzamidine 2 ethansulfonic acid salt prepared in Example 1, and the N-hydroxy-4-{5-[4-(5-isopropyl-2-methyl-1,3-thiazol-4-yl)phenoxy]pentoxy}benzamidine 2 methansulfonic acid salt prepared in Comparative Example 2 were individually administered to SD rats in a dosage of 50 mg/kg. At given time points (0, 0.5, 1, 1.5, 2, 3, 5 and 8 hrs), rats were mildly anesthetized with diethyl ether, and blood samples were collected from the orbital venous plexus and stored at −20° C. until concentration analysis. The plasma samples were mixed with an equal volume of an internal standard substance solution (prepared by dissolving betamethasone in acetonitrile to give a final concentration of 30 μg/ml) with agitation for 1 min, and was centrifuged at 12,000 rpm for 10 min. Active components of the plasma samples were analyzed by HPLC (Model: Waters Module 1). From the obtained data, pharmacokinetic parameters [maximum blood concentration (Cmax) and area under the blood concentration-time curve (AUC)] were calculated by noncompartment analysis using the WinNonlin program (Version 1.0, Scientific Consulting Inc., USA).

A short description of data set [4]: Evaluation of stability under accelerated conditions, HPLC content. The settings on record: for change in content (stability in words): 60°C, 2 weeks; for Content: 60°C±2/75% RH±5, cap-opened vial. In kind it is physicochemical. Here is the method:
The N-hydroxy-4-{5-[4-(5-isopropyl-2-methyl-1,3-thiazol-4-yl)phenoxy]pentoxy}benzamidine 2 ethansulfonic acid salt prepared in Example 1 was placed into a transparent glass vial, and stored at a cap-opened state under accelerated conditions (60° C.±2/75% RH±5) for a period of two weeks. Thereafter, the sample was analyzed by HPLC (Waters Module 1). The analysis was performed using a column packed with an octadecyl-silylated silica gel (Shiseido CAPCELL PAK C18, UG 120, Particle size 5 μm) under conditions: UV detection: 256 nm, injection volume: 10 μl, mobile-phase flow rate: 1.5 mL/min. The amount of the compound was calculated as an area percentage.

Data set [5] concerns callus / bone fractures. The settings on record: rats, vs untreated control; cited from earlier work.
Data set [6] has as its system ovalbumin-induced asthma. The settings on record: asthmatic mice, cited from earlier work.
Setting [7] is: dose-dependent, vs control group.

Counter-ions that a name gives are not always drawn.

Take `CS(=O)(=O)O.CS(=O)(=O)O.Cc1nc(-c2ccc(OCCCCCOc3ccc(C(=N)NO)cc3)cc2)c(C(C)C)s1` [2 Methansulfonic acid salt, N-hydroxy-4-{5-[4-(5-isopropyl-2-methyl-1,3-thiazol-4-yl)phenoxy]pentoxy}benzamidine 2 methansulfonic acid salt]: the release rate in data set [1] (5 min) is 5.3%; in data set [1] (10 min), 13.9%; in data set [1] (15 min), 20.1%; in data set [1] (30 min), 34.3%. Also, the solubility in data set [2] (distilled water, room temperature) was 3,535 μg/ml. The AUC (area under the blood concentration-time curve) in data set [3] (SD rats) was found to be 8.97 ± 3.09 µg·h/mL. Further, the “Cmax (maximum blood concentration)” value in data set [3] (SD rats) was determined as 1.792 ± 0.912 µg/mL. In data set [3] (SD rats), the “Tmax (time to reach maximum plasma concentration)” value turned out to be 3.00 ± 1.63 h.

Regarding `Cc1nc(-c2ccc(OCCCCCOc3ccc(C(=N)NO)cc3)cc2)c(C(C)C)s1` [2 Ethansulfonic acid salt, N-hydroxy-4-{5-[4-(5-isopropyl-2-methyl-1,3-thiazol-4-yl)phenoxy]pentoxy}benzamidine 2 ethansulfonic acid salt], the release rate amounted to 14.8% in data set [1] (5 min), 20.5% in data set [1] (10 min), 24.2% in data set [1] (15 min) and 31.3% in data set [1] (30 min). In addition, the results for the “release rate, fold higher than 2 methanesulfonic acid salt” value in data set [1] (after 5 min), in data set [1] (after 10 min) and in data set [1] (after 15 min) were “about 2.8 fold”, “about 1.4 fold” and “about 1.2 fold”, respectively. For the same molecule, the entries for the “change in content (stability in words)” value in data set [4] and in data set [4] (listed as 2 ethanesulfonic acid salt) were “no change in content” and “no change in its content”, respectively. Besides, the Content in data set [4] (after 1 week) amounted to 99.88%; in data set [4] (after 2 weeks), 99.86%; in data set [4] (early stage), 100.00%. This molecule yielded a solubility in data set [2] (water) of 4.42 mg/mL. In data set [3] (SD, rat, in vivo), this molecule had an AUC of 10.8 ± 0.833 µg·h/mL. In addition, the “AUC, fold higher than 2 methanesulfonic acid salt” value in data set [3] (SD, rat, in vivo) is reported as “about 1.2 fold”. This molecule registered a Cmax in data set [3] (SD, rat, in vivo) of 2.36 ± 0.183 µg/mL. Besides, in data set [3] (SD, rat, in vivo), the “Cmax, fold higher than 2 methanesulfonic acid salt” value is given as 1.3 fold. Also, the Tmax in data set [3] (SD, rat, in vivo) is 2.13 ± 0.63 h. Further, the “Tmax, fold faster than 2 methanesulfonic acid salt” value in data set [3] (SD, rat, in vivo) is given as 1.4 fold.

Turning to `Cc1nc(-c2ccc(OCCCCCOc3ccc(C(=N)NO)cc3)cc2)c(C(C)C)s1` [free base, N-hydroxy-4-{5-[4-(5-isopropyl-2-methyl-1,3-thiazol-4-yl)phenoxy]pentoxy}benzamidine], in data set [5], the “bone mineral content and mechanical strength of callus” value is recorded as “significantly enhanced”; the bone tissue density result is listed as “significantly increased”; the callus volume is reported as “significantly reduced”; the “content of connective and soft tissues in the callus tissue” value was “significantly reduced”. This molecule had a release rate in data set [1] (5 min) of 1.2%. For the same molecule, the release rate in data set [1] (10 min) amounted to 3.5%. This molecule also showed a release rate in data set [1] (15 min) of 7.9%. The molecule further had a release rate in data set [1] (30 min) of 21.3%. Moreover, in data set [6] (setting [7]), the “number of eosinophils in bronchoalveolar lavage fluid” value was “significantly decreased”; the “total number of leukocytes and number of eosinophils (peripheral blood)” value was “significantly decreased”. Besides, in data set [6] (oral, 18 days, vs control given sterile distilled water), the “increase in lung weight” value is recorded as “suppressed the increase in lung weight”. In addition, the alveolar area result in data set [6] (vs control group) is recorded as “significantly increased”.
